The subject of experiment [1] is ventricular muscle (right ventricle). Kind of experiment: Influence on Ventricular Muscle Refractory Period (ERP). The class given is in vivo, mongrel adult dog. The note with it: Canis lupus familiaris, iv, anesthetized dog, read-out: ERP (%; extensibility of refractory period); for change in vivo at 0.1 mg/kg: Dose 0.1 mg/kg i.v.; for change in vivo at 0.3 mg/kg: Dose 0.3 mg/kg i.v.; for change in vivo at 1 mg/kg: Dose 1.0 mg/kg i.v.; for change in vivo at 3 mg/kg: Dose 3.0 mg/kg i.v. As for the experimental part: Refractory periods were measured in the following manner before and after each of the compounds and d-sotalol shown an Table A was separately administered to a vein or a duodenum, and ERP (%; extensibility of refractory period) was calculated from the measured values in accordance with the following formula: […]
W: Refractory period after administration
Y: Refractory period before administration
To a mongrel adult dog, 30 mg/kg of pentobarbital was administered intravenously, and after being anesthetized, a pair of silver-silver chloride electrodes separated by 3 mm was sewn on an opened right ventricule, and electrical stimulation was given at an interval of 400 msec at a duration time of 4 msec under a current twice as much as the threshold. Afterward, a small amount of alcohol was injected into a sinus artery in order to extinguish a pacemaker activity, and the ventricular refractory period (ERP) was measured under ventricule pacing.
That is, 1 train comprised 10 stimulations, and an interval between two of the trains was usually 400 msec. At the time of the refractory period measurement, however, the above interval was shortened every 10 smec, and the interval between the trains at the time when reaction to the first stimulation of the train disappeared was regarded as the refractory period.
In this case, the electrical stimulation was fed in accordance with a program by a heart stimulation device (Diamedical Co., Ltd.; DHM-226-3).

In experiment [2] the test system is Purkinje fiber of the right ventricular free wall. Description: Influence on Myocardial Action Potential Duration Time (APD75). The class given is cell-based, hybrid adult dog. The note with it: Canis lupus familiaris, 20 min, 20 minutes' incubation, 1 Hz, 37° C.; for percent prolongation of action potential duration (APD75) at 1 µg/mL: Dose 1.0 (μg, ml); for percent prolongation of action potential duration (APD75) at 3 µg/mL: Dose 3.0 (μg, ml); for percent prolongation of action potential duration (APD75) at 10 µg/mL: Dose 10.0 (μg, ml). As to the method: To a hybrid adult dog, 30 mg/kg of pentobarbital was administered through a vein, and after being anesthetized, the heart was removed. Afterward, the right ventricular free wall of the heart was cut and taken out in a Tyrode solution.
The taken right ventricular free wall was fixed in an incubator at 37° C., and a nutritional solution (20 ml of the Tyrode solution) was refluxed.
In this isolated condition, myocardial action potential duration times (APD75) were measured before and after the administration of the respective compounds prepared in the above examples in Table A and d-sotalol as a control medicine, and APD75 (%) was calculated from the measured results in accordance with the formula: […]
A: APD75 before administration
B: APD75 after administration
Here, APD75 was measured as follows: A field stimulation of 1 Hz was given to the right ventricular free wall, and any variation of an action potential was depicted on an oscilloscope via a glass microelectrode (10 to 20 M.OMEGA.) thrust into a Purkinje fiber of the free wall and via an amplifier. Afterward, a waveform on the oscilloscope was analyzed by the use of a computer, and the time of from a point of the action potential generation to a point of 75% repolarization was measured. This measured time was regarded as the myocardial action potential duration time (APD75).
The compounds and d-sotalol shown in Table A were separately added to the refluxing nutritional solution (20 ml), and after 20 minutes' incubation, APD75 after the administration was calculated from the variation of the myocardial action potential duration time.
Incidentally, this test was carried out in accordance with a Sato et al's method [H. Sato, K. Hashimoto, Arzneimeittel Forschung, 34 (1), 3a, 376-380 (1984)].

Structures can show the parent of a compound that is named as a salt.

On to `Cn1c(N2CCN(CCCOc3ccc(F)cc3)CC2)cc(=O)n(C)c1=O` [Compound 1, 1,3-dimethyl-6-[4-(3-[4-fluorophenoxy]propyl)piperazin-1-yl]-2,4(1H,3H)-pyrimidinedione.hydrochloride], for which, in experiment [1], the change in vivo at 0.1 mg/kg is 6%, the change in vivo at 0.3 mg/kg is 12%, the change in vivo at 1 mg/kg came out at 15.8% and the change in vivo at 3 mg/kg turned out to be 24.3%. In experiment [2], this compound yielded a percent prolongation of action potential duration (APD75) at 1 µg/mL of 17%, a percent prolongation of action potential duration (APD75) at 3 µg/mL of 22% and a percent prolongation of action potential duration (APD75) at 10 µg/mL of 30%.
As for `Cn1c(N2CCN(CCCOc3ccc(C(=O)c4ccccc4)cc3)CC2)cc(=O)n(C)c1=O` [Compound 9], in experiment [1], the change in vivo at 0.1 mg/kg stood at 5.6%, the change in vivo at 0.3 mg/kg came to 5.6%, the change in vivo at 1 mg/kg is 11.1% and the change in vivo at 3 mg/kg turned out to be 16.7%. Also, in experiment [2], the percent prolongation of action potential duration (APD75) at 1 µg/mL came to 6%, the percent prolongation of action potential duration (APD75) at 3 µg/mL was 21% and the percent prolongation of action potential duration (APD75) at 10 µg/mL is 30%.
As for `Cn1c(N2CCN(CCCOc3cccc(C#N)c3)CC2)cc(=O)n(C)c1=O` [Compound 12], in experiment [1], the change in vivo at 0.1 mg/kg amounted to 0%, the change in vivo at 0.3 mg/kg turned out to be 2.1%, the change in vivo at 1 mg/kg was 4.3% and the change in vivo at 3 mg/kg worked out at 17%. Besides, in experiment [2], the percent prolongation of action potential duration (APD75) at 1 µg/mL was found to be 4%, the percent prolongation of action potential duration (APD75) at 3 µg/mL was 11% and the percent prolongation of action potential duration (APD75) at 10 µg/mL came to 28%.
`Cn1c(N2CCN(CCCOc3ccccc3C#N)CC2)cc(=O)n(C)c1=O` [Compound 16]: in experiment [1], the change in vivo at 0.1 mg/kg worked out at 0%, the change in vivo at 0.3 mg/kg is 0%, the change in vivo at 1 mg/kg was determined as 6.7% and the change in vivo at 3 mg/kg came out at 10%. In experiment [2], this compound showed a percent prolongation of action potential duration (APD75) at 1 µg/mL of 6%, a percent prolongation of action potential duration (APD75) at 3 µg/mL of 14% and a percent prolongation of action potential duration (APD75) at 10 µg/mL of 23%.
In the case of `CC(=O)c1ccccc1OCCCN1CCN(c2cc(=O)n(C)c(=O)n2C)CC1` [Compound 17, 1,3-dimethyl-6-[4-(3-[2-acetylphenoxy)propyl)piperazin-1-yl]-2,4(1H,3H)-pyrimidinedione], in experiment [1], the change in vivo at 0.1 mg/kg turned out to be 3.5%, the change in vivo at 0.3 mg/kg came to 8.3%, the change in vivo at 1 mg/kg turned out to be 13.5% and the change in vivo at 3 mg/kg was found to be 17.3%. In experiment [2], this compound showed a percent prolongation of action potential duration (APD75) at 1 µg/mL of 28%, a percent prolongation of action potential duration (APD75) at 3 µg/mL of 43% and a percent prolongation of action potential duration (APD75) at 10 µg/mL of 59%.
In the case of `CC(=O)Nc1ccccc1OCCCN1CCN(c2cc(=O)n(C)c(=O)n2C)CC1` [Compound 18], in experiment [1], the change in vivo at 0.3 mg/kg is 6.3% and the change in vivo at 1 mg/kg worked out at 12.5%. Also, in experiment [2], the percent prolongation of action potential duration (APD75) at 3 µg/mL was 11% and the percent prolongation of action potential duration (APD75) at 10 µg/mL turned out to be 22%.
With `CC(C)C(=O)c1ccccc1OCCCN1CCN(c2cc(=O)n(C)c(=O)n2C)CC1` [Compound 25], in experiment [1], the change in vivo at 0.1 mg/kg came out at 0%, the change in vivo at 0.3 mg/kg is 0%, the change in vivo at 1 mg/kg worked out at 0% and the change in vivo at 3 mg/kg is 7.6%. In experiment [2], this compound yielded a percent prolongation of action potential duration (APD75) at 1 µg/mL of 13% and a percent prolongation of action potential duration (APD75) at 3 µg/mL of 26%.
As to `Cn1c(N2CCN(CCCOc3ccccc3C(=O)CCc3ccccc3)CC2)cc(=O)n(C)c1=O` [Compound 31], in experiment [1], the change in vivo at 0.1 mg/kg was 0%, the change in vivo at 0.3 mg/kg came to 0%, the change in vivo at 1 mg/kg worked out at 6.3% and the change in vivo at 3 mg/kg was determined as 12.9%. In experiment [2], the percent prolongation of action potential duration (APD75) at 1 µg/mL was 13% and the percent prolongation of action potential duration (APD75) at 3 µg/mL amounted to 16%.
As to `Cn1c(N2CCN(CCCOc3ccccc3N=[N+]=[N-])CC2)cc(=O)n(C)c1=O` [Compound 36], in experiment [1], the change in vivo at 0.1 mg/kg is 0%, the change in vivo at 0.3 mg/kg stood at 7.1%, the change in vivo at 1 mg/kg was 7.1% and the change in vivo at 3 mg/kg stood at 14.3%. Also, the percent prolongation of action potential duration (APD75) at 3 µg/mL in experiment [2] amounted to 17%.
Turning to `Cn1c(N2CCN(CCCOc3ccccc3C(=O)C3CCCC3)CC2)cc(=O)n(C)c1=O` [Compound 39], in experiment [2], the percent prolongation of action potential duration (APD75) at 3 µg/mL was 26% and the percent prolongation of action potential duration (APD75) at 10 µg/mL was 48%.
Consider `Cn1c(N2CCN(CCCOc3ccc(Cl)cc3Cl)CC2)cc(=O)n(C)c1=O` [Compound 43], for which, in experiment [1], the change in vivo at 0.1 mg/kg was 0%, the change in vivo at 0.3 mg/kg is 0%, the change in vivo at 1 mg/kg is 7.7% and the change in vivo at 3 mg/kg stood at 19.3%. In experiment [2], this compound gave a percent prolongation of action potential duration (APD75) at 3 µg/mL of 13% and a percent prolongation of action potential duration (APD75) at 10 µg/mL of 18%.
Turning to `Cn1c(N2CCN(CCCOc3ccc(Cl)cc3S(C)(=O)=O)CC2)cc(=O)n(C)c1=O` [Compound 50], in experiment [1], the change in vivo at 0.1 mg/kg worked out at 0%, the change in vivo at 0.3 mg/kg was 5.6%, the change in vivo at 1 mg/kg stood at 5.6% and the change in vivo at 3 mg/kg amounted to 11.1%. In experiment [2], the percent prolongation of action potential duration (APD75) at 1 µg/mL was found to be 6%, the percent prolongation of action potential duration (APD75) at 3 µg/mL came to 15% and the percent prolongation of action potential duration (APD75) at 10 µg/mL came out at 26%.
Turning to `Cn1c(N2CCN(CCCOc3ccc(Cl)cc3C(=O)c3ccccc3)CC2)cc(=O)n(C)c1=O` [Compound 51], in experiment [1], the change in vivo at 0.1 mg/kg worked out at 0%, the change in vivo at 0.3 mg/kg is 6.3%, the change in vivo at 1 mg/kg was 6.3% and the change in vivo at 3 mg/kg was determined as 12.5%. In experiment [2] (Dose 0.3 (μg, ml)), the percent prolongation of action potential duration (APD75) at 0.3 µg/mL is 11%. Also, in experiment [2], the percent prolongation of action potential duration (APD75) at 1 µg/mL came out at 19% and the percent prolongation of action potential duration (APD75) at 3 µg/mL amounted to 24%.
In experiment [2], `Cn1c(N2CCN(CCCOc3ccc(Cl)cc3C(=O)c3ccccn3)CC2)cc(=O)n(C)c1=O` [Compound 52] displayed a percent prolongation of action potential duration (APD75) at 1 µg/mL of 9%, a percent prolongation of action potential duration (APD75) at 3 µg/mL of 14% and a percent prolongation of action potential duration (APD75) at 10 µg/mL of 18%.
For `Cn1c(N2CCN(CCCOc3ccc(C(=O)c4ccccc4)cc3F)CC2)cc(=O)n(C)c1=O` [Compound 58], in that order: 19%, 29% and 36%.
In experiment [2], `Cn1c(NCCN(CCO)CCCc2ccccc2)cc(=O)n(C)c1=O` [Compound 120, 1,3-dimethyl-6-[2-(N-[2-hydroxyethyl]-3-phenylpropylamino)ethylamino]-2,4(1H,3H)-pyrimidinedione.oxalate] showed a percent prolongation of action potential duration (APD75) at 1 µg/mL of 6%, a percent prolongation of action potential duration (APD75) at 3 µg/mL of 14% and a percent prolongation of action potential duration (APD75) at 10 µg/mL of 26%.
For `CCN(CCCc1ccccc1)CCNc1cc(=O)n(C)c(=O)n1C` [Compound 121, 1,3-dimethyl-6-[2-(N-ethyl-3-phenylpropylamino)ethylamino]-2,4(1H,3H)-pyrimidinedione.oxalate], in that order: 9%, 14% and 16%.
